Measurements reported in patent publication US10556884B2, “Pesticidally active heterocyclic derivatives with sulphur containing substituents” (SYNGENTA PARTICIPATIONS AG, priority 2015, dated 2020).
Where two headings read alike, the source gives them in different places.

Experiments:
[1] = tested on: Myzus persicae (Green Peach Aphid); assay: Myzus persicae feeding/contact activity, sunflower leaf discs; format: in vivo; conditions: foliar, 144 h
Protocol: Example B5: Myzus persicae (Green Peach Aphid): Feeding/Contact Activity
(§1) Sunflower leaf discs were placed onto agar in a 24-well microtiter plate and sprayed with aqueous test solutions prepared from 10′000 ppm DMSO stock solutions. After drying, the leaf discs were infested with an aphid population of mixed ages. The samples were assessed for mortality 6 days after infestation.

[2] = tested on: Myzus persicae (Green Peach Aphid); assay: Myzus persicae systemic activity, pea seedlings; format: in vivo; conditions: 144 h, test rate of 24 ppm, 6 days after placing seedlings into test solutions
[3] = tested on: Plutella xylostella (Diamond Back Moth); assay: Plutella xylostella L2 larvae on artificial diet; format: in vivo; conditions: 120 h, read-out: effect in at least one of the two categories (mortality or growth inhibition); for percent effect (mortality or growth inhibition) at 200 ppm: application rate of 200 ppm, L2 larvae, 5 days after infestation
Protocol: Example B7: Plutella xylostella (Diamond Back Moth)
(§2) 24-well microtiter plates with artificial diet were treated with aqueous test solutions prepared from 10′000 ppm DMSO stock solutions by pipetting. After drying, the plates were infested with L2 larvae (10 to 15 per well). The samples were assessed for mortality and growth inhibition in comparison to untreated samples 5 days after infestation.

[4] = tested on: Thrips tabaci (Onion Thrips); assay: Thrips tabaci feeding/contact activity, sunflower leaf discs; format: in vivo; conditions: foliar, 144 h, application rate of 200 ppm, population of mixed ages, 6 days after infestation
Protocol: Example B11: Thrips tabaci (Onion Thrips) Feeding/Contact Activity
as §1, with “on” for “onto”, “in” for “in a”, “plates” for “plate”, “drying” for “drying,”, “a thrips” for “an aphid”

[5] = tested on: Spodoptera littoralis (Egyqptian Cotton Leaf Worm); assay: Spodoptera littoralis L1 larvae on sprayed cotton leaf discs; format: in vivo; conditions: foliar, 72 h, read-out: control (mortality, anti-feeding effect, growth inhibition)
Protocol: Example B8: Spodoptera littoralis (Egyqptian Cotton Leaf Worm)
Cotton leaf discs were placed onto agar in 24-well microtiter plates and sprayed with aqueous test solutions prepared from 10′000 ppm DMSO stock solutions. After drying the leaf discs were infested with five L1 larvae. The samples were assessed for mortality, anti-feeding effect, and growth inhibition in comparison to untreated samples 3 days after infestation. Control of Spodoptera littoralis by a test sample is given when at least one of the categories mortality, anti-feedant effect, and growth inhibition is higher than the untreated sample.

[6] = tested on: Diabrotica Balteata (Corn Root Worm); assay: Diabrotica balteata L2 larvae on maize sprouts; format: in vivo; conditions: 96 h, read-out: effect in at least one of the two categories (mortality or growth inhibition); for percent effect (mortality or growth inhibition) at 200 ppm: application rate of 200 ppm, L2 larvae, 4 days after infestation
Protocol: Example B2: Diabrotica Balteata (Corn Root Worm)
as §2, with “Maize sprouts placed onto an agar layer in 24-well” for “24-well”, “plates” for “plates with artificial diet”, “spraying.” for “pipetting.”, “(6” for “(10”, “10” for “15”, “4” for “5”

[7] = application rate of 200 ppm, feeding/contact, population of mixed ages, 6 days after infestation, read-out: mortality
[8] = application rate of 200 ppm, L1 larvae, 3 days after infestation

Structure (SMILES)	mortality at 200 ppm [1, 7] [%]	mortality at 24 ppm [2] [%]	further results
CCSc1cc(NC(=O)C2CC2)cnc1-c1nnc(-c2cc(C(F)(F)F)ccn2)n1C [A1, N-[5-ethylsulfanyl-6-[4-methyl-5-[4-(trifluoromethyl)-2-pyridyl]-1,2,4-triazol-3-yl]-3-pyridyl]cyclopropanecarboxamide]	≥ 80		
CCS(=O)(=O)c1cc(C=O)cnc1-c1nnc(-c2cc(C(F)(F)F)ccn2)n1C [A3, 5-ethylsulfonyl-6-[4-methyl-5-[4-(trifluoromethyl)-2-pyridyl]-1,2,4-triazol-3-yl]pyridine-3-carbaldehyde]	≥ 80	≥ 80	
CCS(=O)(=O)c1cc(C(C)=O)cnc1-c1nnc(-c2cc(C(F)(F)F)ccn2)n1C [A4, 1-[5-ethylsulfonyl-6-[4-methyl-5-[4-(trifluoromethyl)-2-pyridyl]-1,2,4-triazol-3-yl]-3-pyridyl]ethanone]		≥ 80	
CCS(=O)(=O)c1ccc(NC2CC2)nc1-c1nnc(-c2cc(C(F)(F)F)ccn2)n1C [A5, N-cyclopropyl-5-ethylsulfonyl-6-[4-methyl-5-[4-(trifluoromethyl)-2-pyridyl]-1,2,4-triazol-3-yl]pyridin-2-amine]	≥ 80	≥ 80	
CCS(=O)(=O)c1ccc(N(C)C(=O)C2CC2)nc1-c1nnc(-c2cc(C(F)(F)F)ccn2)n1C [A8, N-[5-ethylsulfonyl-6-[4-methyl-5-[4-(trifluoromethyl)-2-pyridyl]-1,2,4-triazol-3-yl]-2-pyridyl]-N-methyl-cyclopropanecarboxamide]	≥ 80	≥ 80	percent effect (mortality or growth inhibition) at 200 ppm [3]: ≥ 80%; mortality at 200 ppm [4]: ≥ 80%; mortality at 200 ppm [5, 8]: ≥ 80%; percent effect (mortality or growth inhibition) at 200 ppm [6]: ≥ 80%
CCS(=O)(=O)c1cc(N(C)C2CC2)cnc1-c1nnc(-c2cc(C(F)(F)F)ccn2)n1C [A10, N-cyclopropyl-5-ethylsulfonyl-N-methyl-6-[4-methyl-5-[4-(trifluoromethyl)-2-pyridyl]-1,2,4-triazol-3-yl]pyridin-3-amine]	≥ 80		mortality at 200 ppm [5, 8]: ≥ 80%
CCS(=O)(=O)c1ccc(N(C)C2CC2)nc1-c1nnc(-c2cc(C(F)(F)F)ccn2)n1C [A11, N-cyclopropyl-5-ethylsulfonyl-N-methyl-6-[4-methyl-5-[4-(trifluoromethyl)-2-pyridyl]-1,2,4-triazol-3-yl]pyridin-2-amine]	≥ 80	≥ 80	
CCS(=O)(=O)c1cc(N(C)S(C)(=O)=O)cnc1-c1nnc(-c2cc(C(F)(F)F)ccn2)n1C [A12, N-[5-ethylsulfonyl-6-[4-methyl-5-[4-(trifluoromethyl)-2-pyridyl]-1,2,4-triazol-3-yl]-3-pyridyl]-N-methyl-methanesulfonamide]	≥ 80	≥ 80	
CCS(=O)(=O)c1cc(NS(C)(=O)=O)cnc1-c1nnc(-c2cc(C(F)(F)F)ccn2)n1C [A14, N-[5-ethylsulfonyl-6-[4-methyl-5-[4-(trifluoromethyl)-2-pyridyl]-1,2,4-triazol-3-yl]-3-pyridyl]methanesulfonamide]			melting point: 228 to 230 °C
CCS(=O)(=O)c1cc(C(=O)N(C)C2CC2)cnc1-c1nnc(-c2cc(C(F)(F)F)ccn2)n1C [A16, N-cyclopropyl-5-ethylsulfonyl-N-methyl-6-[4-methyl-5-[4-(trifluoromethyl)-2-pyridyl]-1,2,4-triazol-3-yl]pyridine-3-carboxamide]			melting point: 235 to 237 °C
CCS(=O)(=O)c1ccc(C(=O)NC2CC2)nc1-c1nnc(-c2cc(C(F)(F)F)ccn2)n1C [A19, N-cyclopropyl-5-ethylsulfonyl-6-[4-methyl-5-[4-(trifluoromethyl)-2-pyridyl]-1,2,4-triazol-3-yl]pyridine-2-carboxamide]	≥ 80	≥ 80	mortality at 200 ppm [4]: ≥ 80%
CCS(=O)(=O)c1cc(NC2(C#N)CC2)cnc1-c1nnc(-c2cc(C(F)(F)F)ccn2)n1C [A22, 1-[[5-ethylsulfonyl-6-[4-methyl-5-[4-(trifluoromethyl)-2-pyridyl]-1,2,4-triazol-3-yl]-3-pyridyl]amino]cyclopropanecarbonitrile]		≥ 80	
CCS(=O)(=O)c1cc(N/C=N/OC)cnc1-c1nnc(-c2cc(C(F)(F)F)ccn2)n1C [A24, N-[5-ethylsulfonyl-6-[4-methyl-5-[4-(trifluoromethyl)-2-pyridyl]-1,2,4-triazol-3-yl]-3-pyridyl]-N′-methoxy-formamidine]		≥ 80	
CCS(=O)(=O)c1cc(N(C)/C=N/OC)cnc1-c1nnc(-c2cc(C(F)(F)F)ccn2)n1C [A25, N-[5-ethylsulfonyl-6-[4-methyl-5-[4-(trifluoromethyl)-2-pyridyl]-1,2,4-triazol-3-yl]-3-pyridyl]-N′-methoxy-N-methyl-formamidine]	≥ 80	≥ 80	
CCS(=O)(=O)c1ccc(N(CC(F)(F)F)C(=O)C2CC2)nc1-c1nnc(-c2cc(C(F)(F)F)ccn2)n1C [A29, N-[5-ethylsulfonyl-6-[4-methyl-5-[4-(trifluoromethyl)-2-pyridyl]-1,2,4-triazol-3-yl]-2-pyridyl]-N-(2,2,2-trifluoroethyl)cyclopropanecarboxamide]	≥ 80		percent effect (mortality or growth inhibition) at 200 ppm [3]: ≥ 80%; mortality at 200 ppm [4]: ≥ 80%; mortality at 200 ppm [5, 8]: ≥ 80%; percent effect (mortality or growth inhibition) at 200 ppm [6]: ≥ 80%
CCS(=O)(=O)c1cc(N(C)N(C)C(=O)C2CC2)cnc1-c1nnc(-c2cc(C(F)(F)F)ccn2)n1C [A31, N′-[5-ethylsulfonyl-6-[4-methyl-5-[4-(trifluoromethyl)-2-pyridyl]-1,2,4-triazol-3-yl]-3-pyridyl]-N,N′-dimethyl-cyclopropanecarbohydrazide]	≥ 80	≥ 80	
CCS(=O)(=O)c1cc(N)cnc1-c1nnc(-c2cc(C(F)(F)F)ccn2)n1C [A35, 5-ethylsulfonyl-6-[4-methyl-5-[4-(trifluoromethyl)-2-pyridyl]-1,2,4-triazol-3-yl]pyridin-3-amine]	≥ 80		
CCS(=O)(=O)c1ccc(N(C)C(=O)OC(C)(C)C)nc1-c1nnc(-c2cc(C(F)(F)F)ccn2)n1C [A38, Tert-Butyl N-[5-ethylsulfonyl-6-[4-methyl-5-[4-(trifluoromethyl)-2-pyridyl]-1,2,4-triazol-3-yl]-2-pyridyl]-N-methyl-carbamate]			percent control (mortality or growth inhibition) at 200 ppm [3]: ≥ 80%; mortality at 200 ppm [5]: ≥ 80%; percent control (mortality or growth inhibition) at 200 ppm [6]: ≥ 80%; mortality at 200 ppm [1]: ≥ 80%
CCS(=O)(=O)c1cc(N(C)C(=O)OC(C)(C)C)cnc1-c1nnc(-c2cc(C(F)(F)F)ccn2)n1C [A39, Tert-Butyl N-[5-ethylsulfonyl-6-[4-methyl-5-[4-(trifluoromethyl)-2-pyridyl]-1,2,4-triazol-3-yl]-3-pyridyl]-N-methyl-carbamate]			percent control (mortality or growth inhibition) at 200 ppm [3]: ≥ 80%; mortality at 200 ppm [5]: ≥ 80%; percent control (mortality or growth inhibition) at 200 ppm [6]: ≥ 80%
CCS(=O)(=O)c1ccc(NC)nc1-c1nnc(-c2cc(C(F)(F)F)ccn2)n1C [A41, 5-ethylsulfonyl-N-methyl-6-[4-methyl-5-[4-(trifluoromethyl)-2-pyridyl]-1,2,4-triazol-3-yl]pyridin-2-amine]	≥ 80	≥ 80	
